Data reported in US20110152099A1, “BIOACTIVE COMPOUNDS OF ASCOPHYLLUM NODOSUM AND THEIR USE FOR ALLEVIATING SALT-INDUCED STRESS IN PLANTS” (priority 2008, published 2011).

Test system: plants under salt stress
Assay: Root length under salt stress
Assay type: in vivo
Conditions: compared to +Na untreated plants
From the text: The code numbers in FIG. 18 refer to different organic extracts.

Structure (SMILES): C/C=C(/CCC(C)C1CCC2C3CC=C4CC(O)CCC4(C)C3CCC12C)C(C)C (stereo not shown) [fucosterol, 24-ethylidene cholesterol]
- root length: longer root length
